# Measurements: ChEMBL document CHEMBL5724696, “Autophagy assay results for EUbOPEN Chemogenomics Library” (2024)
# Where “and” joins values, the source holds several entries; their conditions need not be identical. Equal entries are not always repeated.
# Key:
# Type in all cases: functional, Homo sapiens
# [1] = system: TERT-RPE1; assay: (§1) Here: values are normalized to the negative (DMSO; defined as 0% autophagy induction) and positive (250nM Torin1; mTOR inhibitor; defined as maximal inducer of autophagy = 100%) control compounds and represented as % of autophagy induction. […] The impact of autophagy induction on cells is complex and depends on the affected target. As such, the magnitude of a phenotype may not be equally mirrored in the %-value of autophagy induction and vice versa. The dynamics of the induction may indicate the mode of activation: e.g. activation via phosphorylation or a signaling cascade may occur fast, while activation via transcription factors may take considerably longer. […] Of note, treatment concentrations may be sub-optimal for specific compounds, leading to false negative annotations.; details: Culturing Media DMEM/F12 (1:1), 1 % Penicillin/Streptomycin, 10% Fetal bovin serum Add-On: No, Screening Media Control DMEM/F12 (1:1), Screening Media Samples DMEM/F12 (1:1)
# [2] = system: U2OS; assay: as §1; details: Culturing Media DMEM, 1 % Penicillin/Streptomycin, 10% Fetal bovin serum Add-On: No, Screening Media Control DMEM, Screening Media Samples DMEM
# [3] = system: U2OS; assay: as §1; details: Culturing Media DMEM, 1 % Penicillin/Streptomycin, 10% Fetal bovin serum Add-On: No, Screening Media Control DMEM, Screening Media Samples DMEM; remark: listed apart in the source
# [4] = Compound Concentration 0.5 uM, Timepoint 12 hours
# [5] = Compound Concentration 0.5 uM, Timepoint 24 hours
# [6] = Compound Concentration 0.5 uM, Timepoint 36 hours
# [7] = Compound Concentration 0.5 uM, Timepoint 60 hours
# [8] = Compound Concentration 2 uM, Timepoint 12 hours
# [9] = Compound Concentration 2 uM, Timepoint 24 hours
# [10] = Compound Concentration 2 uM, Timepoint 36 hours
# [11] = Compound Concentration 2 uM, Timepoint 60 hours
# [12] = Compound Concentration 10 uM, Timepoint 12 hours
# [13] = Compound Concentration 10 uM, Timepoint 24 hours
# [14] = Compound Concentration 10 uM, Timepoint 36 hours
# [15] = Compound Concentration 10 uM, Timepoint 60 hours
smiles,measurement,setting,value
COc1ccc(S(=O)(=O)N2c3ccc(Cl)cc3[C@](O)(c3ccccc3Cl)[C@@H]2C(=O)N2CCC[C@H]2C(N)=O)cc1OC [RELCOVAPTAN],autophagy induction,"[1]; Compound Concentration 0.5 uM, Timepoint 12 hours, 12 h, 0.5 µM",-0.4521% and -5.349%
same,autophagy induction,"[1]; Compound Concentration 0.5 uM, Timepoint 24 hours, 24 h, 0.5 µM",-0.2273% and -4.727%
same,autophagy induction,"[1]; Compound Concentration 0.5 uM, Timepoint 36 hours, 36 h, 0.5 µM",-2.897% and -4.661%
same,autophagy induction,"[1]; Compound Concentration 0.5 uM, Timepoint 60 hours, 60 h, 0.5 µM",-4.347% and -7.0603%
same,autophagy induction,"[1]; Compound Concentration 2 uM, Timepoint 12 hours, 12 h, 2 µM",0.8726% and -2.524%
same,autophagy induction,"[1]; Compound Concentration 2 uM, Timepoint 24 hours, 24 h, 2 µM",-1.739% and -2.756%
same,autophagy induction,"[1]; Compound Concentration 2 uM, Timepoint 36 hours, 36 h, 2 µM",-2.675% and -2.785%
same,autophagy induction,"[1]; Compound Concentration 2 uM, Timepoint 60 hours, 60 h, 2 µM",-4.303% and -2.0726%
same,autophagy induction,"[1]; Compound Concentration 10 uM, Timepoint 12 hours, 12 h, 10 µM",0.7279% and 5.088%
same,autophagy induction,"[1]; Compound Concentration 10 uM, Timepoint 24 hours, 24 h, 10 µM",4.093% and 9.7265%
same,autophagy induction,"[1]; Compound Concentration 10 uM, Timepoint 36 hours, 36 h, 10 µM",6.165% and 16.6943%
same,autophagy induction,"[1]; Compound Concentration 10 uM, Timepoint 60 hours, 60 h, 10 µM",11.326% and 28.0498%
same,autophagy induction,[2]; [4],-0.4488%
same,autophagy induction,[2]; [5],-3.182%
same,autophagy induction,[2]; [6],-42.6034%
same,autophagy induction,[2]; [7],-2.284%
same,autophagy induction,[2]; [8],-3.799%
same,autophagy induction,[2]; [9],-4.202%
same,autophagy induction,[2]; [10],-60.4871%
same,autophagy induction,[2]; [11],-1.266%
same,autophagy induction,[2]; [12],4.624%
same,autophagy induction,[2]; [13],2.3507%
same,autophagy induction,[2]; [14],-58.7044%
same,autophagy induction,[2]; [15],-2.271%
same,autophagy induction,[3]; [4],-8.786%
same,autophagy induction,[3]; [5],-9.572%
same,autophagy induction,[3]; [6],-12.5258%
same,autophagy induction,[3]; [7],-16.7068%
same,autophagy induction,[3]; [8],-3.79%
same,autophagy induction,[3]; [9],-9.305%
same,autophagy induction,[3]; [10],-13.7756%
same,autophagy induction,[3]; [11],-18.6617%
same,autophagy induction,[3]; [12],-6.744%
same,autophagy induction,[3]; [13],-13.3744%
same,autophagy induction,[3]; [14],-5.479%
same,autophagy induction,[3]; [15],-4.839%
